In the supplement of paper PMC10949913:

Key:
Conditions in all cases: 48 h
CU-ACC2 [1] = assay: area under concentration-response curve (viability) (AUC (a.u.)); higher = less active
Method in brief: (§1)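 Three adrenocortical carcinoma cell lines were plated in 1,536-well plates at 500–1,000 cells/well in 5 µL medium, and 23 nL of each library compound was added at 11 concentrations. After 48 h, CellTiter-Glo was applied for 15 minutes at room temperature before luminescence was read. Each plate's signals were normalised to vehicle and empty-well controls. AC50 and area under the curve were taken from fitted concentration-response curves, with only inhibitory or non-responding curve classes retained.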

CU-ACC2 [2] = assay: AC50 viability; higher = less potent
Method in brief: as §1

CU-ACC1 [3] = assay: area under concentration-response curve (viability) (AUC (a.u.)); higher = less active
Method in brief: as §1

NCI-H295R [4] = assay: as above
Method in brief: as §1

NCI-H295R [5] = assay: AC50 viability; higher = less potent
Method in brief: as §1

CU-ACC1 [6] = assay: AC50 viability; higher = less potent
Method in brief: as §1

Structure (SMILES) | area under concentration-response curve (CU-ACC2 [1]) | AC50 viability (CU-ACC2 [2]) | area under concentration-response curve (CU-ACC1 [3]) | area under concentration-response curve (NCI-H295R [4]) | AC50 viability (NCI-H295R [5]) | AC50 viability (CU-ACC1 [6])
O=C(O)[C@H](Cc1c[nH]c2ccccc12)N1C(=O)c2ccccc2C1=O | 338 | 37.2 µM | – | – | – | –
CCNC1(C(N)=O)CCN(c2ncnc3c2nc(-c2ccccc2Cl)n3-c2ccc(Cl)cc2)CC1 | 330 | 0.295 µM | – | – | – | –
FC1=CC2=C3[N](CCN(CC3=C1)C(=O)N4CCCCC4)C=C2C/5=C(C(=O)NC5=O)\C6=CN=C7C=CC=C[N]67 | 549 | 18.6 µM | – | – | – | –
CC1(C)C(N(O)C(=O)Nc2ccc(Cl)cc2)N(c2ccc(Cl)cc2)C(=O)N1CC(=O)N/N=C/C=C/c1ccc([N+](=O)[O-])o1 (configuration not stated) | 561 | 23.5 µM | 511 | – | – | –
O=C(CCCCCCNC(=O)c1cnc(N(c2ccccc2)c2ccccc2Cl)nc1)NO | 502 | 11.8 µM | 464 | – | – | –
COc1c(Cl)cc2c([nH]c3cnccc32)c1NC(=O)c1cccnc1C | 374 | 7.42 µM | – | – | – | –
C[C@@H](N)c1ccc(C(=O)Nc2ccnc3[nH]ccc23)cc1 | 297 | 2.63 µM | 349 | – | – | –
CC(C)[C@H](CO)Nc1nc(Nc2cccc(Cl)c2)c2ncn(C(C)C)c2n1 | 591 | 29.5 µM | 551 | – | – | –
Fc1ccc(-c2nc(-c3ccccc3F)[nH]c2-c2ccncc2)cc1 | 399 | 33.2 µM | 336 | – | – | –
CNCc1ccc(-c2[nH]c3cc(F)cc4c3c2CCNC4=O)cc1 | 495 | 26.3 µM | 416 | – | – | –
CCOC(=O)c1ccnc(CNCC(=O)N(CC)CCN(C)C)c1 | 339 | 0.661 µM | 338 | – | – | –
CCOc1cc2ncc(C#N)c(Nc3ccc(F)c(Cl)c3)c2cc1NC(=O)/C=C/CN(C)C | 419 | 8.33 µM | – | – | – | –
Cc1[nH]c(/C=C2\C(=O)Nc3ccc(F)cc32)c(C)c1C(=O)NCCN1CCCC1 | 525 | 14.4 µM | 522 | – | – | –
N#CCNC(=O)c1ccc(-c2ccnc(Nc3ccc(N4CCOCC4)cc3)n2)cc1 | 514 | 14.8 µM | – | – | – | –
[2H]C([2H])([2H])C(O)([C@@H](C)/C=C/[C@@H](C)[C@H]1CC[C@H]2/C(=C/C=C3C[C@@H](O)C[C@H](O)C3)CCC[C@]12C)C([2H])([2H])[2H] | 309 | 0.235 µM | 347 | – | – | –
CC[C@H](CO)Nc1nc(NCc2ccccc2)c2ncn(C(C)C)c2n1 | 582 | 20.9 µM | – | – | – | –
OCc1ccc(-c2ccc(-c3ccc(CO)s3)o2)s1 | 532 | 37.2 µM | 507 | – | – | –
C[S+](=O)([O-])c1cccc(CNc2nc(Nc3ccc4c(c3)CCC(=O)N4)ncc2C(F)(F)F)c1 | 467 | 23.5 µM | – | – | – | –
CCN1C(=O)\C(=C/C2=CN=C(NCCC3CCN(C)CC3)N=C12)C4=CC=C(C=C4Cl)C5=CN=CC(=N5)C | 624 | 2.63 µM | 645 | – | – | –
CNC(=O)c1cccc2cc(Oc3ccnc4cc(OCC5(N)CC5)c(OC)cc34)ccc12 | 305 | 1.66 µM | 356 | – | – | –
C[C@H](NC(=O)[C@@H]1C[C@@H](O)CN1C(=O)[C@@H](NC(=O)COCCCOCCNC(=O)C[C@@H]2\N=C(C3=CC=C(Cl)C=C3)/C4=C(SC(=C4C)C)[N]5C(=NN=C25)C)C(C)(C)C)C6=CC=C(C=C6)C7=C(C)N=CS7 | 478 | 8.33 µM | 474 | – | – | –
CN1CCN(c2cccc(Nc3nc4c(-c5ccc([S+](C)(=O)[O-])cc5)cccn4n3)c2)CC1 | 552 | 20.9 µM | – | – | – | –
Cc1cccc(-c2[nH]c(C(C)(C)C)nc2-c2ccc3nccnc3c2)n1 | 331 | 0.263 µM | 293 | – | – | –
CC(C)n1cnc2c(NCCc3ccc(O)cc3)nc(-c3csc4ccccc34)nc21 | 325 | 9.34 µM | 335 | – | – | –

Structure (SMILES) | area under concentration-response curve (CU-ACC2 [1]) | AC50 viability (CU-ACC2 [2]) | area under concentration-response curve (CU-ACC1 [3]) | area under concentration-response curve (NCI-H295R [4]) | AC50 viability (NCI-H295R [5]) | AC50 viability (CU-ACC1 [6])
Cc1cnc(C(=O)NCCc2ccc([S+](=O)([O-])NC(=O)NC3CCCCC3)cc2)cn1 | 404 | 33.2 µM | 355 | – | – | –
CN1CCN(CC1)\C2=N\C3=C(NC4=C2C=CC=C4)C=CC(=C3)Cl | 398 | 33.2 µM | – | – | – | –
CN(C)c1ccc2nc3ccc(N(C)C)cc3[s+]c2c1.[Cl-] | 482 | 20.9 µM | – | – | – | –
COc1cc2nc(-c3ccc(N4CCN(C)CC4)cc3)nc(NCCN3CCOCC3)c2cc1OC | 397 | 3.72 µM | – | – | – | –
CN(C)c1ccc(Nc2nc(N)n(C(=O)c3c(F)cccc3F)n2)cc1 | 553 | 16.6 µM | – | – | – | –
C=CC(=O)Nc1cccc(C)c1Nc1ncc2cc(-c3c(Cl)c(OC)cc(OC)c3Cl)ccc2n1 | 475 | 6.61 µM | – | – | – | –
O=C(Nc1cc(Cl)cc2c1[nH]c1cnccc12)c1cccnc1 | 402 | 0.182 µM | – | – | – | –
Clc1ccc(C(Cn2ccnc2)OCc2ccc(Sc3ccccc3)cc2)c(Cl)c1 (configuration not stated) | 528 | 23.5 µM | – | – | – | –
Cc1nc(N)ncc1-c1nc(N2CCOCC2)c2sc(C(C)(C)O)cc2n1 | 488 | – | 333 | 475 | 4.68 µM | 8.33 µM
N#Cc1ccc(-c2c(-c3nnc[nH]3)sc(N3CCOCC3)c2C#N)c(F)c1 | 568 | – | 465 | 478 | 4.68 µM | 7.42 µM
COc1ncc(Nc2ncc([C@H](C)N3CCN([S+](C)(=O)[O-])CC3)cc2-c2nc(C)nc(N)n2)cc1F | 473 | – | 387 | 392 | 0.934 µM | 1.32 µM
COC(=O)Nc1ccc(-c2nc(N3CCOCC3)c3cnn(C4CCN(C(=O)OC)CC4)c3n2)cc1 | 573 | – | 399 | 485 | 2.95 µM | 2.95 µM
CC1(C)CC[C@@]2(CC[C@]3(C)[C@@H]([C@@H]2C1)C(=O)\C=C\4[C@@]3(C)CC[C@H]5C(C)(C)C(=O)\C(=C/[C@]45C)C#N)NC(=O)C(C)(F)F | 606 | 23.5 µM | – | – | – | –
CC1=C(C)C\2=C(S1)[N]3C(=NN=C3[C@H](CC(=O)NC4=CC=C(OCCOCCOCCOCCNC5=CC=CC6=C5C(=O)N(C7CCC(=O)NC7=O)C6=O)C=C4)\N=C2C8=CC=C(Cl)C=C8)C (some centres not stated) | 484 | – | 443 | 457 | 1.86 µM | 0.417 µM
COc1cc(C(=O)NC(=N)Nc2ccc(C)c(NC(=O)c3ccc(-c4ccccc4)cc3)c2)cc(OC)c1OC | 489 | – | 403 | 399 | 13.2 µM | 10.5 µM
Cc1ccc(NC(=O)c2ccc(CN3CCNCC3)cc2)cc1Nc1nccc(-c2cccnc2)n1 | 600 | – | 496 | 518 | 26.3 µM | 6.61 µM
O=C1Nc2ccc(Cl)cc2[C@@](C#CC2CC2)(C(F)(F)F)O1 | 589 | – | 490 | 468 | 20.9 µM | 20.9 µM
OC(c1cc(C(F)(F)F)nc2c(C(F)(F)F)cccc12)C1CCCCN1 (configuration not stated) | 619 | – | 501 | 527 | 20.9 µM | 23.5 µM
FC(F)(F)c1ccc(C/N=c2\ccc(Cc3c[nH]c4ncccc34)c[nH]2)cc1 | 597 | – | 511 | 541 | 11.8 µM | 16.6 µM
CCN1C(=O)C\N=C/2N\C=C(/N=C12)C3=C(C)N=C(C=C3)C4=NN=C[NH]4 | 489 | – | 404 | 458 | 13.2 µM | 10.5 µM
Cn1c(=O)n(-c2ccc(C(C)(C)C#N)cc2)c2c3cc(-c4cnc5ccccc5c4)ccc3ncc21 | 623 | – | 471 | 510 | 0.171 µM | 0.108 µM
NC(=O)c1cccc2nc(-c3ccc([C@H]4CCCN4)cc3F)[nH]c12 | 576 | – | 453 | 464 | 7.42 µM | 8.33 µM
C[C@@H]1CN(Cc2ccc(F)cc2)CCN1C(=O)COc1ccc(Cl)cc1NC(N)=O | 522 | – | 412 | 465 | 0.166 µM | 1.86 µM
